Our source for the IC50 values is US20090304692A1, “TRIAZINE COMPOUNDS AS PI3 KINASE AND MTOR INHIBITORS” (Wyeth, priority 2008, published 2009).

One may read the IC50 as the midpoint of a concentration-inhibition curve.

The target of one assay is Human mTOR (FLAG-TOR) (Homo sapiens, UniProt P42345). Kind of assay: mTOR kinase assay (DELFIA format, purified enzyme). The format is biochemical. The conditions noted are these: read-out: IC50 mTOR.
The target in a further assay is PI3K-α (Homo sapiens, UniProt P42336). The assay can be described thus: PI3K-alpha fluorescence polarization assay. The conditions noted are these: read-out: IC50 PI3Kα.
Chain of PI3K-α (P42336 whole entry, species assumed): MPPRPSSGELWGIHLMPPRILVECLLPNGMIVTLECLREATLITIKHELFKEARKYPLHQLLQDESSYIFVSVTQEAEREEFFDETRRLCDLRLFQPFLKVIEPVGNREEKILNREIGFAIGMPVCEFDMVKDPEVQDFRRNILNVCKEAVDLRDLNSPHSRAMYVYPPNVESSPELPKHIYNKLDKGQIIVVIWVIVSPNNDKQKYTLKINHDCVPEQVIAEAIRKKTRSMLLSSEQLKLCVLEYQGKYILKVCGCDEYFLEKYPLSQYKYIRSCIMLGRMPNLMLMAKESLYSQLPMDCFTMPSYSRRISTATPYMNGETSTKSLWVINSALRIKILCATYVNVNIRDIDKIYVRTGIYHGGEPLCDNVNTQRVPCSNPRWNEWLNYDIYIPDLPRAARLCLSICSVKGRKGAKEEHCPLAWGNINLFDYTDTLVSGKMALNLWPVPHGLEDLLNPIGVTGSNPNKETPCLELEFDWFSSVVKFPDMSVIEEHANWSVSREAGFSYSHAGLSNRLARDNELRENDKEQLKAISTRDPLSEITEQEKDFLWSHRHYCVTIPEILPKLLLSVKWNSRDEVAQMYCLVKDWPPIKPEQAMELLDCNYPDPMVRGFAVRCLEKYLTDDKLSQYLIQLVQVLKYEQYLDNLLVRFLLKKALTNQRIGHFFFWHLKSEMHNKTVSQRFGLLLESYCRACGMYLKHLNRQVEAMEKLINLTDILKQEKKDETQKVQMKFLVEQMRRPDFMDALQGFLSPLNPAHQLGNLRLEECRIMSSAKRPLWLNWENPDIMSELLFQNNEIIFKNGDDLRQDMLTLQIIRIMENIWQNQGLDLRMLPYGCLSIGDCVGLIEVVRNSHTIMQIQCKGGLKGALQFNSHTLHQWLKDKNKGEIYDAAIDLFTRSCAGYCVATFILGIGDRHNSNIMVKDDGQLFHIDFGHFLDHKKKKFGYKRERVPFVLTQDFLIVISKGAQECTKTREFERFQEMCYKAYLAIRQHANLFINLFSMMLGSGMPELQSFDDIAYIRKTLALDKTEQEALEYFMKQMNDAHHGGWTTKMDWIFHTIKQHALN
Chain of PI3K-α (P27986 whole entry partner, species assumed): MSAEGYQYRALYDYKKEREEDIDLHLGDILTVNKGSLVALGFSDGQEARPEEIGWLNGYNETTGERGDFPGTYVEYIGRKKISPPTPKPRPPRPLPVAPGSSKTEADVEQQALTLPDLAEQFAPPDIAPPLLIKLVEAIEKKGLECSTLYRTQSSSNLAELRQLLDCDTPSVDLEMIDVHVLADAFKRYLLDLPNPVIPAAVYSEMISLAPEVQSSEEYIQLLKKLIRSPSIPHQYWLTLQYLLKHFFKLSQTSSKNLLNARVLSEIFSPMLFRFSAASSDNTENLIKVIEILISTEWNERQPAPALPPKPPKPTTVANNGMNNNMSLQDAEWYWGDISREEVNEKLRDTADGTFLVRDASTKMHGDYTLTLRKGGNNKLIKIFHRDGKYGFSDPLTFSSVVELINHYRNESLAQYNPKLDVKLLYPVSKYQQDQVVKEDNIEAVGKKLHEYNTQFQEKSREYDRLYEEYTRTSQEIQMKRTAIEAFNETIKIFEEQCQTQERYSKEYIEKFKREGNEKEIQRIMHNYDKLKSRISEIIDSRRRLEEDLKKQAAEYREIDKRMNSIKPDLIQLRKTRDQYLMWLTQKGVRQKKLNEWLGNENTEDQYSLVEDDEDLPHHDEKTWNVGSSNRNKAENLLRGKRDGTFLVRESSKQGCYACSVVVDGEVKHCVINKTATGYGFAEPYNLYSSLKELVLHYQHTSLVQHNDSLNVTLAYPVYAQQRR
For a further assay, the target named is PI3K-γ (Homo sapiens, UniProt P48736). The assay can be described thus: PI3K-gamma fluorescence polarization assay. The note with it: read-out: IC50 PI3Kγ. (In general: In fluorescence polarisation assays a small probe gives low polarisation when free and higher when bound to something large.)
Chain of PI3K-γ (P48736 whole entry, species assumed): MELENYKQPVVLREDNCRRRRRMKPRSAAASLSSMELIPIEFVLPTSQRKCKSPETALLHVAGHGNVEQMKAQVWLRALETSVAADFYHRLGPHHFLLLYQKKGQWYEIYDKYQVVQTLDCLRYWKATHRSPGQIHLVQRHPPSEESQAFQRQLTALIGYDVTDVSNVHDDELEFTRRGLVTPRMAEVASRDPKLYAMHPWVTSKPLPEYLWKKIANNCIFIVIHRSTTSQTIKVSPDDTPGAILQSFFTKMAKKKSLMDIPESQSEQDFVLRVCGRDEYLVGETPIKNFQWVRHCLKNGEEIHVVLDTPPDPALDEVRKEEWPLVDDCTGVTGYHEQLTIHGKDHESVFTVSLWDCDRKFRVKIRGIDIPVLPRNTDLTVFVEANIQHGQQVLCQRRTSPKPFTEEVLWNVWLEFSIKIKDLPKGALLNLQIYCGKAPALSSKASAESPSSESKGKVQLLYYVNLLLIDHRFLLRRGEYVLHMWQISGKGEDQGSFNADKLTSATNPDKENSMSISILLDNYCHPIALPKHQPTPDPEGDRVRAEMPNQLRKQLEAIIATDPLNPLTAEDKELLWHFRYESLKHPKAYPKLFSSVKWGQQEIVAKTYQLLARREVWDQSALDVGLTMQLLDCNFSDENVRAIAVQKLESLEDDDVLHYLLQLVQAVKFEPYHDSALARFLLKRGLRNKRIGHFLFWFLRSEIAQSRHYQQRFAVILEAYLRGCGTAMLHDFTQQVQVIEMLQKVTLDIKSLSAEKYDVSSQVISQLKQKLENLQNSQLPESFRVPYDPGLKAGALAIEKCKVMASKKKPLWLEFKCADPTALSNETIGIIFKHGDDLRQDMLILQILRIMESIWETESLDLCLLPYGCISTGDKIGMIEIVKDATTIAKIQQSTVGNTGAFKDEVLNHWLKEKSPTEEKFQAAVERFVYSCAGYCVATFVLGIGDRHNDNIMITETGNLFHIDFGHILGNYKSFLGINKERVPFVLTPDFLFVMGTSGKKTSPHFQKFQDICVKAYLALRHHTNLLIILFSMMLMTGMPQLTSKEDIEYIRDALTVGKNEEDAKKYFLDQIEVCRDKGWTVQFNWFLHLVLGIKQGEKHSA
Assay [1] concerns human prostate PC3-mm2 tumor cell line. Kind of assay: In vitro cell culture growth assay (MTS), PC3-mm2. It is filed as cell-based. The note with it: Homo sapiens, PC3MM2, 72 h, three days after drug treatment, PC3-mm2 cells, read-out: IC50 PC3-mm2.
The subject of assay [2] is human breast MDA-MB-361 tumor cell line. The assay can be described thus: In vitro cell culture growth assay (MTS), MDA-MB-361. The format is cell-based. The note with it: Homo sapiens, three days after drug treatment, MDA-MB-361 cells, read-out: IC50 MDA-MB-361.
[3] abbreviates: MDA-MB-361, 72 h, MTS cell growth assay.

The structures appear in SMILES notation. Read-outs that look alike come from different tables or passages of the source. Bounds are passed on as bounds.

Chain of Human mTOR (FLAG-TOR) (P42345 1360-2549 limits assumed): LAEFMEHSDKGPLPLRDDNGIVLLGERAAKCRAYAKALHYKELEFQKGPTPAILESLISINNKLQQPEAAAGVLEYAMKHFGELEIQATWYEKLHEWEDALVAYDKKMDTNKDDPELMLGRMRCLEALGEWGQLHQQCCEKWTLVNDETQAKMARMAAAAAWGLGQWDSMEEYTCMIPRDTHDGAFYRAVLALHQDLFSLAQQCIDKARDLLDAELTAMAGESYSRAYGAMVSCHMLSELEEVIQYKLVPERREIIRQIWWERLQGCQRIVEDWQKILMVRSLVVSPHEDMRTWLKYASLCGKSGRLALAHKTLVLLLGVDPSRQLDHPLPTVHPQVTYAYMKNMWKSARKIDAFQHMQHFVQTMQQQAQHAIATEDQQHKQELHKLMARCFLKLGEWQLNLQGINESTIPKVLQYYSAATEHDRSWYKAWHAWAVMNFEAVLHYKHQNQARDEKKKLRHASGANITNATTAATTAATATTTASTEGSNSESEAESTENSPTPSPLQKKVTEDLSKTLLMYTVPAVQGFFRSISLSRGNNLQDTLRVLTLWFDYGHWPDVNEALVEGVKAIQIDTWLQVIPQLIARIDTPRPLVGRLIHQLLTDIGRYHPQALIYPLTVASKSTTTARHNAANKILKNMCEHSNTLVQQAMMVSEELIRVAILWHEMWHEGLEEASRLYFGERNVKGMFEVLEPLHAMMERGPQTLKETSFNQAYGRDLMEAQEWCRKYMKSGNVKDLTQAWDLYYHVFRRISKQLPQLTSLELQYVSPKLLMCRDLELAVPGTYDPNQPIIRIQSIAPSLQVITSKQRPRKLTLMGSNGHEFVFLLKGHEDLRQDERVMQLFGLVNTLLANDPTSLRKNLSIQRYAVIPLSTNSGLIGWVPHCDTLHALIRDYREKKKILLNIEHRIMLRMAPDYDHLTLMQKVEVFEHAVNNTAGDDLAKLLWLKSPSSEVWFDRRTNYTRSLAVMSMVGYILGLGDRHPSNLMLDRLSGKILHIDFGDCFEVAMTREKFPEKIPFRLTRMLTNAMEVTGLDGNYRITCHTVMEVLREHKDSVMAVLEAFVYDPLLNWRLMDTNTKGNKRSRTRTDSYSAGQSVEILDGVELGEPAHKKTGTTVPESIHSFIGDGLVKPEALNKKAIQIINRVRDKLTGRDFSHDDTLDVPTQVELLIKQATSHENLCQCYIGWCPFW

On to `O=C(Nc1ccc(C(=O)NCCN2CCCCC2)cc1)Nc1ccc(-c2nc(N3CCOCC3)nc(N3C4COCC3COC4)n2)cc1` [Example 775, 4-[({4-[4-(3,7-dioxa-9-azabicyclo[3.3.1]non-9-yl)-6-morpholin-4-yl-1,3,5-triazin-2-yl]phenyl}carbamoyl)amino]-N-(2-piperidin-1-ylethyl)benzamide], for which the IC50 stood at 0.23 nM at Human mTOR (FLAG-TOR); 2.5 nM on PI3K-α; 46.5 nM on PI3K-γ; 7 nM in assay [1] (MTS cell growth assay); 5 nM in assay [2] (72 h, MTS cell growth assay).

As for `O=C(Nc1ccc(C(=O)N2CCC(N3CCCC3)CC2)cc1)Nc1ccc(-c2nc(N3CCOCC3)nc(N3C4COCC3COC4)n2)cc1` [Example 776, 1-{4-[4-(3,7-dioxa-9-azabicyclo[3.3.1]non-9-yl)-6-morpholin-4-yl-1,3,5-triazin-2-yl]phenyl}-3-{4-[(4-pyrrolidin-1-ylpiperidin-1-yl)carbonyl]phenyl}urea], the IC50 at Human mTOR (FLAG-TOR) was 0.345 nM; at PI3K-α, 3 nM; at PI3K-γ it was 29.5 nM; in assay [1] (MTS cell growth assay) it was 6 nM; in assay [2] (setting [3]), less than 3.2 nM.

`O=C(Nc1ccc(C(=O)N2CCC(N3CCCCC3)CC2)cc1)Nc1ccc(-c2nc(N3CCOCC3)nc(N3C4COCC3COC4)n2)cc1` [Example 777, 1-[4-(1,4′-bipiperidin-1′-ylcarbonyl)phenyl]-3-{4-[4-(3,7-dioxa-9-azabicyclo[3.3.1]non-9-yl)-6-morpholin-4-yl-1,3,5-triazin-2-yl]phenyl}urea]: the IC50 on Human mTOR (FLAG-TOR) was 0.265 nM; on PI3K-α, 4 nM; on PI3K-γ, 39 nM; in assay [1] (MTS cell growth assay) it was 4 nM; in assay [2] (setting [3]), 2 nM.

In the case of `O=C(Nc1ccc(C(=O)NCCc2ccccn2)cc1)Nc1ccc(-c2nc(N3CCOCC3)nc(N3C4COCC3COC4)n2)cc1` [Example 778, 4-[({4-[4-(3,7-dioxa-9-azabicyclo[3.3.1]non-9-yl)-6-morpholin-4-yl-1,3,5-triazin-2-yl]phenyl}carbamoyl)amino]-N-(2-pyridin-2-ylethyl)benzamide], the IC50 on Human mTOR (FLAG-TOR) amounted to 0.28 nM; on PI3K-α, 11.5 nM; at PI3K-γ it was 126 nM; in assay [1] (MTS cell growth assay), 29 nM; in assay [2] (72 h, MTS cell growth assay) it was 17 nM.

Regarding `O=C(Nc1ccc(C(=O)NCCc2ccncc2)cc1)Nc1ccc(-c2nc(N3CCOCC3)nc(N3C4COCC3COC4)n2)cc1` [Example 779, 4-[({4-[4-(3,7-dioxa-9-azabicyclo[3.3.1]non-9-yl)-6-morpholin-4-yl-1,3,5-triazin-2-yl]phenyl}carbamoyl)amino]-N-(2-pyridin-4-ylethyl)benzamide], the IC50 at Human mTOR (FLAG-TOR) was 0.23 nM; at PI3K-α, 4.2 nM; at PI3K-γ, 49.7 nM; in assay [1] (MTS cell growth assay), 23 nM; in assay [2] (72 h, MTS cell growth assay), 13 nM.

On to `CN1CCN(C(=O)c2ccc(NC(=O)Nc3ccc(-c4nc(NS(=O)(=O)c5ccccc5)nc(N5CCOCC5)n4)cc3)cc2)CC1` [Example 784, N-(4-{4-[({4-[(4-methylpiperazin-1-yl)carbonyl]phenyl}carbamoyl)amino]phenyl}-6-morpholin-4-yl-1,3,5-triazin-2-yl)benzenesulfonamide], for which the half-maximal inhibitory concentration (IC50) on Human mTOR (FLAG-TOR) was 88 nM; on PI3K-α, 40.5 nM; on PI3K-γ, 174 nM; in assay [1] (MTS cell growth assay) it was more than 1000 nM; in assay [2] (72 h, MTS cell growth assay), more than 1000 nM.

For the molecule `O=C(Nc1ccc(C(=O)N2CCNCC2)cc1)Nc1ccc(-c2nc(NS(=O)(=O)c3ccccc3)nc(N3CCOCC3)n2)cc1` [Example 785, N-{4-morpholin-4-yl-6-[4-({[4-(piperazin-1-ylcarbonyl)phenyl]carbamoyl}amino)phenyl]-1,3,5-triazin-2-yl}benzenesulfonamide], the IC50 is 55.5 nM at Human mTOR (FLAG-TOR); 6 nM on PI3K-α; 45.5 nM at PI3K-γ; more than 1000 nM in assay [1] (MTS cell growth assay); more than 1000 nM in assay [2] (72 h, MTS cell growth assay).

Take `CN(C)C1CCN(C(=O)c2ccc(NC(=O)Nc3ccc(-c4nc(NS(=O)(=O)c5ccccc5)nc(N5CCOCC5)n4)cc3)cc2)CC1` [Example 786, N-[4-(4-{[(4-{[4-(dimethylamino)piperidin-1-yl]carbonyl}phenyl)carbamoyl]amino}phenyl)-6-morpholin-4-yl-1,3,5-triazin-2-yl]benzenesulfonamide]: the IC50 was 89 nM on Human mTOR (FLAG-TOR); 30.5 nM at PI3K-α; 129 nM on PI3K-γ; more than 1000 nM in assay [1] (MTS cell growth assay); more than 1000 nM in assay [2] (setting [3]).

With `CN(C)CCN(C)C(=O)c1ccc(NC(=O)Nc2ccc(-c3nc(NS(=O)(=O)c4ccccc4)nc(N4CCOCC4)n3)cc2)cc1` [Example 787, N-[2-(dimethylamino)ethyl]-N-methyl-4-{[(4-{4-morpholin-4-yl-6-[(phenylsulfonyl)amino]-1,3,5-triazin-2-yl}phenyl)carbamoyl]amino}benzamide], the IC50 at Human mTOR (FLAG-TOR) was 58.5 nM; on PI3K-α, 10.5 nM; at PI3K-γ, 146 nM; in assay [1] (MTS cell growth assay), more than 1000 nM; in assay [2] (72 h, MTS cell growth assay), more than 1000 nM.

`CN(C)CCNC(=O)c1ccc(NC(=O)Nc2ccc(-c3nc(NS(=O)(=O)c4ccccc4)nc(N4CCOCC4)n3)cc2)cc1` [Example 788, N-[2-(dimethylamino)ethyl]-4-{[(4-{4-morpholin-4-yl-6-[(phenylsulfonyl)amino]-1,3,5-triazin-2-yl}phenyl)carbamoyl]amino}benzamide]: the IC50 on Human mTOR (FLAG-TOR) is 26 nM; at PI3K-α, 13 nM; at PI3K-γ it was 160 nM; in assay [1] (MTS cell growth assay) it was more than 1000 nM; in assay [2] (72 h, MTS cell growth assay) it was more than 1000 nM.

In the case of `O=C(Nc1ccncc1)Nc1ccc(-c2nc(N3CCOCC3)nc(N3C4CCCC3COC4)n2)cc1` [Example 791, 1-{4-[4-morpholin-4-yl-6-(3-oxa-9-azabicyclo[3.3.1]non-9-yl)-1,3,5-triazin-2-yl]phenyl}-3-pyridin-4-ylurea], the 50% inhibitory concentration (IC50) is 0.68 nM on Human mTOR (FLAG-TOR); 12.5 nM at PI3K-α; 64.5 nM on PI3K-γ; 42 nM in assay [1] (MTS cell growth assay); 11 nM in assay [2] (72 h, MTS cell growth assay).

In the case of `CN1CCN(C(=O)c2ccc(NC(=O)Nc3ccc(-c4nc(N5CCOCC5)nc(N5C6CCCC5COC6)n4)cc3)cc2)CC1` [Example 792, 1-{4-[(4-methylpiperazin-1-yl)carbonyl]phenyl}-3-{4-[4-morpholin-4-yl-6-(3-oxa-9-azabicyclo[3.3.1]non-9-yl)-1,3,5-triazin-2-yl]phenyl}urea], the IC50 came out at 0.81 nM at Human mTOR (FLAG-TOR); 3.3 nM on PI3K-α; 35.5 nM on PI3K-γ; 16 nM in assay [1] (MTS cell growth assay); 2 nM in assay [2] (setting [3]).

For `O=C(Nc1ccc(C(=O)N2CCNCC2)cc1)Nc1ccc(-c2nc(N3CCOCC3)nc(N3C4CCCC3COC4)n2)cc1` [Example 793, 1-{4-[4-morpholin-4-yl-6-(3-oxa-9-azabicyclo[3.3.1]non-9-yl)-1,3,5-triazin-2-yl]phenyl}-3-[4-(piperazin-1-ylcarbonyl)phenyl]urea], the IC50 stood at 0.42 nM at Human mTOR (FLAG-TOR); 1 nM on PI3K-α; 15 nM at PI3K-γ; 26 nM in assay [1] (MTS cell growth assay); 2 nM in assay [2] (setting [3]).

For the molecule `CN(C)C1CCN(C(=O)c2ccc(NC(=O)Nc3ccc(-c4nc(N5CCOCC5)nc(N5C6CCCC5COC6)n4)cc3)cc2)CC1` [Example 794, 1-(4-{[4-(dimethylamino)piperidin-1-yl]carbonyl}phenyl)-3-{4-[4-morpholin-4-yl-6-(3-oxa-9-azabicyclo[3.3.1]non-9-yl)-1,3,5-triazin-2-yl]phenyl}urea], the IC50 on Human mTOR (FLAG-TOR) worked out at 0.63 nM; at PI3K-α, 4.1 nM; on PI3K-γ, 26 nM; in assay [1] (MTS cell growth assay), 20 nM; in assay [2] (setting [3]), 2 nM.

Consider `CN(C)CCN(C)C(=O)c1ccc(NC(=O)Nc2ccc(-c3nc(N4CCOCC4)nc(N4C5CCCC4COC5)n3)cc2)cc1` [Example 795, N-[2-(dimethylamino)ethyl]-N-methyl-4-[({4-[4-morpholin-4-yl-6-(3-oxa-9-azabicyclo[3.3.1]non-9-yl)-1,3,5-triazin-2-yl]phenyl}carbamoyl)amino]benzamide], for which the IC50 was 0.425 nM at Human mTOR (FLAG-TOR); 2.7 nM on PI3K-α; 26.5 nM on PI3K-γ; 10 nM in assay [1] (MTS); less than 3.2 nM in assay [2] (72 h, MTS).

On to `CN(C)CCNC(=O)c1ccc(NC(=O)Nc2ccc(-c3nc(N4CCOCC4)nc(N4C5CCCC4COC5)n3)cc2)cc1` [Example 796, N-[2-(dimethylamino)ethyl]-4-[({4-[4-morpholin-4-yl-6-(3-oxa-9-azabicyclo[3.3.1]non-9-yl)-1,3,5-triazin-2-yl]phenyl}carbamoyl)amino]benzamide], for which the IC50 was determined as 0.39 nM at Human mTOR (FLAG-TOR); 2.6 nM at PI3K-α; 31.5 nM at PI3K-γ; 18 nM in assay [1] (MTS); 2 nM in assay [2] (72 h, MTS).

In the case of `COCCNC(=O)c1ccc(NC(=O)Nc2ccc(-c3nc(N4CCOCC4)nc(N4C5CCCC4COC5)n3)cc2)cc1` [Example 797, N-(2-methoxyethyl)-4-[({4-[4-morpholin-4-yl-6-(3-oxa-9-azabicyclo[3.3.1]non-9-yl)-1,3,5-triazin-2-yl]phenyl}carbamoyl)amino]benzamide], the IC50 was 1.3 nM at Human mTOR (FLAG-TOR); 11.5 nM on PI3K-α; 76 nM on PI3K-γ; 29 nM in assay [1] (MTS); 11 nM in assay [2] (72 h, MTS).
